Columns and labels:
[1] = system: HLM; test: Metabolism: decomposition under the effect of HLM; format: in vitro ADME
Method: The decomposition under the effect of the enzyme HLM/60 minutes was tested analogously.

[2] = system: Human Urethra; test: Efficacy: contraction of human urethra compared with noradrenaline; settings: percentage of contraction compared with noradrenaline
Method: (§1) The efficacy and selectivity of the compounds is determined as follows:
(§2) Maximum contraction in the dog and activity on human urethra are percentages of contraction compared with noradrenaline. Selectivity in the dog is the percentage contraction of the dog's femoral artery at 10^−5 M—percentage contraction of the carotid artery in the dog at 10^−5 M.

[3] = system: the Dog; test: Efficacy: maximum contraction in the dog compared with noradrenaline; settings: percentage of contraction compared with noradrenaline
Method: as §1, §2

[4] = system: dog's femoral artery / carotid artery in the dog; test: Selectivity in the dog: femoral artery versus carotid artery contraction; settings: percentage contraction of femoral artery at 10^−5 M — percentage contraction of carotid artery at 10^−5 M
Method: as §1, §2

[5] = molecular target: CYP2D6 (Homo sapiens, UniProt P10635); test: Metabolism: substrate breakdown by enzyme CYP2D6; format: in vitro ADME
Chain of CYP2D6 (P10635 whole entry): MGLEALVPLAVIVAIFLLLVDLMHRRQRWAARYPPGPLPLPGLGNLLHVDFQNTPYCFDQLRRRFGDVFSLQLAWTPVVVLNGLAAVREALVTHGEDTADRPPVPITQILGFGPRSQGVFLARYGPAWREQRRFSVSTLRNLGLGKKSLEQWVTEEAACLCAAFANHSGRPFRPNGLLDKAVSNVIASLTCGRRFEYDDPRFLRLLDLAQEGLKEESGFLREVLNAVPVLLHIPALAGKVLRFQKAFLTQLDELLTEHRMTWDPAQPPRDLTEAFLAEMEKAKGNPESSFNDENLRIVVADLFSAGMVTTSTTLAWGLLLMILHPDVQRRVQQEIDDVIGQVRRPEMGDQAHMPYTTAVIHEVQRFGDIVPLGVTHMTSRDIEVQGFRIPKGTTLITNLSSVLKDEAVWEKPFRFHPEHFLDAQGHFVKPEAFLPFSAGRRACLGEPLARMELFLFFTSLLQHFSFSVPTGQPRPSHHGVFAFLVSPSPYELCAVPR
Method: To determine the metabolism the enzyme CYP2D6 was allowed to act on the test substances. After 30 minutes, a check was made to see how much of the test substance put in had been degraded by the enzyme.

[6] = Bioavailability, oral versus intravenous administration in rats, plasma HPLC; format: in vivo; settings: male fasted rats, oral vs intravenous, pooled plasma; for bioavailability: rat
Method: To determine the bioavailability, the test substances were administered orally to a group of 8 male fasted rats. As a control, animals in an identical second group were given the test substances intravenously. At specified times after administration (10 minutes, 30 minutes, 1 hour, 2 hours and 4 hours, and additionally 6 hours in the case of the animals in the oral group) 1 mL blood samples were taken from the animals in both groups. The blood samples taken in each group were mixed together (8 mL). The content of the corresponding test substances in the blood for the appropriate time was determined from the plasma after further working up by HPLC (High Performance Liquid Chromatography) using standard methods and correlated for the two groups.

| Compound | % Substrate Breakdown After 60 Minutes Incubation with HLM [1] [%] | Activity on Human Urethra [2] [%] | Activity in the Dog [3] [%] | Selectivity in the Dog [4] | % Substrate Breakdown After 30 Minutes Incubation with CYP2D6 [5] [%] | Bioavailability in % [6] [%] | bioavailability [6] [%] |
| --- | --- | --- | --- | --- | --- | --- | --- |
| Cc1c(NC2=NCCN2)cccc1C(C)C [Compound 1, 3′-isopropyl-2′-methylphen-1′-yl-2-iminoimidazolidine] | 13.5 | 11 | 78 | 0.7 | 18.2 |  |  |
| COc1ccc(C(C)(C)C)cc1N=C1NCCN1 [Compound 2, 3′-tert-butyl-6′-methoxyphen-1′-yl-2-iminoimidazolidine] | 2.7 | 30 | 71 | 0.6 | 0.7 | 34 |  |
| Cc1c(C(C)C)ccc(Cl)c1NC1=NCCN1 [Compound 3, 6′-chloro-3′-isopropyl-2′-methylphen-1′-yl-2-iminoimidazolidine] | 11.7 | 41 | 70 | 0.7 | 6.1 |  | 8 |
| Cc1c(NC2=NCCN2)ccc(Cl)c1C(C)C [Compound 4, 4′-chloro-3′-isopropyl-2′-methylphen-1′-yl-2-iminoimidazolidine] | 5.5 |  | 59 | 0.5 | 7.6 |  |  |
| Cc1c(C(C)C)ccc(Br)c1NC1=NCCN1 [Compound 5, 6′-bromo-3′-isopropyl-2′-methylphen-1′-yl-2-iminoimidazolidine] | 7.5 |  | 34 | 0.4 | 8.7 |  |  |
| CC(C)(C)c1ccc(Br)c(N=C2NCCN2)c1 [Compound 6, 6′-bromo-3′-tert-butylphen-1′-yl-2-iminoimidazolidine] | 2.8 |  | 28 |  | 3.0 |  |  |
| Cc1c(NC2=NCCN2)ccc(Br)c1C(C)C [Compound 7, 4′-bromo-3′-isopropyl-2′-methylphen-1′-yl-2-iminoimidazolidine] |  | 21 | 70 | 0.7 | 5.0 |  | 53 |
